Results published in ChEMBL document CHEMBL4602732, “Optimizing Pyrazolopyrimidine Inhibitors of Calcium Dependent Protein Kinase 1 for Treatment of Acute and Chronic Toxoplasmosis” (J Med Chem, 2020).

Tests used:
[1] = Cytotoxicity against MDCK cells assessed as cell growth at 20 uM measured after 72 hrs by cellTiter 96 AQueous non-radioactive cell proliferation assay relative to control; type: cell-based, Canis lupus familiaris; settings: dog, read-out: Activity
[2] = Protein binding in mouse plasma assessed as unbound fraction at 2 uM measured after 4 hrs by LC-MS/MS analysis; type: ADME, cell-free
Cytochrome P450 1A2 = molecular target: T1, Cytochrome P450 1A2 (Homo sapiens, UniProt P05177); experiment: Inhibition of CYP1A2 in human liver microsomes using phenacetin as substrate measured after 10 mins by LC-MS/MS analysis; type: ADME
T1 sequence (P05177 whole entry): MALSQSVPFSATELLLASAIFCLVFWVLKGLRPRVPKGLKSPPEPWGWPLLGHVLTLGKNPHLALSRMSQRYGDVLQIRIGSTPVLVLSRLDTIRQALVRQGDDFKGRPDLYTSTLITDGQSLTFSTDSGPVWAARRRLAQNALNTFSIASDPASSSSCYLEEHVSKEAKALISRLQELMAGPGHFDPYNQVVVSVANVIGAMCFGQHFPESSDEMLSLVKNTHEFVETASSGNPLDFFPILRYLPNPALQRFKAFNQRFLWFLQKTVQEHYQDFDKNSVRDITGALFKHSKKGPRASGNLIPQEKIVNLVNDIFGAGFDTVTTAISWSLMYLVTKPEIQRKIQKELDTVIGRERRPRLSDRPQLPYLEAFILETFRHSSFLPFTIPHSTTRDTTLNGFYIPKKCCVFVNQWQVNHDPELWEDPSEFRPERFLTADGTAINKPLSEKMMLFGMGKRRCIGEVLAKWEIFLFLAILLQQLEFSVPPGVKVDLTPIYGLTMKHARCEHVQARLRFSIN

PTK6 = PTK6 (Homo sapiens, UniProt Q13882); experiment: Inhibition of recombinant human full-length His-tagged PTK6 cytoplasmic domain expressed in baculovirus expression system at 1 uM using Fluorescein-Poly GT as substrate by Lanthascreen assay relative to control; settings: probe Fluorescein-Poly GT
Chain of PTK6 (Q13882 whole entry, the tested form may be a part): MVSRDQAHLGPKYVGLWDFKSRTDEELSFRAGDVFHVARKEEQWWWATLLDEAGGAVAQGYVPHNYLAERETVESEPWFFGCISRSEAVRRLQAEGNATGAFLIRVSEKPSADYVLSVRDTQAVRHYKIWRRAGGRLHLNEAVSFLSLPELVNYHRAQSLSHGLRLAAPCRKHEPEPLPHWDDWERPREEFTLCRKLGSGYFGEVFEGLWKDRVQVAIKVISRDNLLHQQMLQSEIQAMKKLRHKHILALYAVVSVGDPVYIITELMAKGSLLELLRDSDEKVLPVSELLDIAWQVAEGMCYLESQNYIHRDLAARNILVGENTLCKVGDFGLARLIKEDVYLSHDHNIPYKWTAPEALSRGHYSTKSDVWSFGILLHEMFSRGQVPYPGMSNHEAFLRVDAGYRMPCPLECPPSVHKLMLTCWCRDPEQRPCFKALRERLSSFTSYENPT

[3] = Apparent permeability across apical to basolateral side in MDCK2-MDR1 cells at 2 uM measured after 150 mins by LC-MS/MS analysis; type: ADME, cell-based, Canis lupus familiaris; settings: dog, mdck-mdr1, […]
Aldehyde oxidase = molecular target: T2, Aldehyde oxidase (Homo sapiens, UniProt Q06278); experiment: Drug metabolism in human liver S9 fraction assessed as aldehyde oxidase-mediated drug metabolism by measuring rate of parent compound decay at 1 uM measured after 90 mins by LC-MS/MS analysis; type: ADME, subcellular
T2 sequence (Q06278 whole entry): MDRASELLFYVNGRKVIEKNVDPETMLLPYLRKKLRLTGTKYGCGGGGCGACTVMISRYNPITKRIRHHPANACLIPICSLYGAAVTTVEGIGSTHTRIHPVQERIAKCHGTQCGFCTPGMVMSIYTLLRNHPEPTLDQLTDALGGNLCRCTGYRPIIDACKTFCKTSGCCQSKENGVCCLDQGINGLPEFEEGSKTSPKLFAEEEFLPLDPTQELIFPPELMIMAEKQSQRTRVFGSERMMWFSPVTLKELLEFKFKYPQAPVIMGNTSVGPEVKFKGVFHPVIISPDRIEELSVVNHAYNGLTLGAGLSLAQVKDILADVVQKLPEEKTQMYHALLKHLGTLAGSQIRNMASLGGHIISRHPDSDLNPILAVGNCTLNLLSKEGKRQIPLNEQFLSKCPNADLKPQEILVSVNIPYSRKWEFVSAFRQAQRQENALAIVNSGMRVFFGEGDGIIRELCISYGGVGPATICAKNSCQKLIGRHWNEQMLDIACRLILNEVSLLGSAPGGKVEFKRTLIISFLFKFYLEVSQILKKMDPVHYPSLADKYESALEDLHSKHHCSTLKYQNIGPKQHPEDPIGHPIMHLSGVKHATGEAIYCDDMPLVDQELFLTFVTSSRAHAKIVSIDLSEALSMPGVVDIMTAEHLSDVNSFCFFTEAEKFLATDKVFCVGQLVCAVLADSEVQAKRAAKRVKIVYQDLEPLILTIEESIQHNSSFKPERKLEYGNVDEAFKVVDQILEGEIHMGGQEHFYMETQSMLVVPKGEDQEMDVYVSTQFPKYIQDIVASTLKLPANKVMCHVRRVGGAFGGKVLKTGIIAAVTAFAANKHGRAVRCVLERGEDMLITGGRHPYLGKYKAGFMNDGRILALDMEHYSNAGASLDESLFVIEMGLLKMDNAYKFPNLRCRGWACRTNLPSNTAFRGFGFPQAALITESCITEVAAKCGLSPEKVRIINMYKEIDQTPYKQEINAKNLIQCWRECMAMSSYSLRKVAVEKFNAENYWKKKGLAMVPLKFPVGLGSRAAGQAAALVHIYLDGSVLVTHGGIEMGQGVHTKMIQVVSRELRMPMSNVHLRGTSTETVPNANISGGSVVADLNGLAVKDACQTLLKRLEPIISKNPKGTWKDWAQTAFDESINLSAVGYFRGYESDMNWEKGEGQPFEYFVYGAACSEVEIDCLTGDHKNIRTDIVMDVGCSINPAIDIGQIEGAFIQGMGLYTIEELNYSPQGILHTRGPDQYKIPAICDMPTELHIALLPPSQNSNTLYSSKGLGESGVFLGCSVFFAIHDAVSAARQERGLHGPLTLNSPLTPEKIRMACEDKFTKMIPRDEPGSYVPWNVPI

[4] = Clearance in human hepatocytes assessed per million cells at 1 uM by LC-MS/MS analysis; type: ADME, cell-based, Hepatocyte
[5] = Intrinsic clearance in human liver microsomes at 10 uM preincubated for 10 mins followed by NADPH addition by LC-MS/MS analysis; type: ADME, Microsome; settings: read-out: CLH
[6] = Cytotoxicity against human HepG2 cells assessed as cell growth at 20 uM measured after 72 hrs by cellTiter 96 AQueous non-radioactive cell proliferation assay relative to control; type: cell-based; settings: read-out: Activity
[7] = Cytotoxicity against human Caco2 cells assessed as cell growth at 20 uM measured after 72 hrs by cellTiter 96 AQueous non-radioactive cell proliferation assay relative to control; type: cell-based, Caco-2; settings: read-out: Activity
LCK = LCK (Homo sapiens, UniProt P06239); experiment: Inhibition of wild-type human partial length LCK (R207 to P509 residues) expressed in bacterial expression system at 10 uM by Kinomescan method relative to control
Chain of LCK (P06239 whole entry, the tested form may be a part): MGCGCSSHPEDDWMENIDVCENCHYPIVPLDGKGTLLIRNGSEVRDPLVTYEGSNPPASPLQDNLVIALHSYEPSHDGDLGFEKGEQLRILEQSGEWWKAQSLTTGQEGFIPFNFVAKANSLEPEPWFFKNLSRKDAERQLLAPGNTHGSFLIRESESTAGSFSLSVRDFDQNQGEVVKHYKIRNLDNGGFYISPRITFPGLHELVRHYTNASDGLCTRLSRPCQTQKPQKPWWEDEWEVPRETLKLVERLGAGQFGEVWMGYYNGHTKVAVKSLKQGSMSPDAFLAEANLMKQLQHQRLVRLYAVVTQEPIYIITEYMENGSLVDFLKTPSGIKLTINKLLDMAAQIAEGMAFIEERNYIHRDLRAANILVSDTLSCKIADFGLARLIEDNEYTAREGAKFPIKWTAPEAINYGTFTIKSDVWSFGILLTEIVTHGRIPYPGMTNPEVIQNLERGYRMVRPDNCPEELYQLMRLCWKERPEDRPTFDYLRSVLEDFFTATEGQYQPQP

[8] = molecular target: Voltage-gated inwardly rectifying potassium channel KCNH2 (Homo sapiens, UniProt Q12809); experiment: Inhibition of human ERG expressed in CHOK1 cells by patch-clamp electrophysiology assay; type: cell-based, CHO-K1
Chain of Voltage-gated inwardly rectifying potassium channel KCNH2 (Q12809 whole entry): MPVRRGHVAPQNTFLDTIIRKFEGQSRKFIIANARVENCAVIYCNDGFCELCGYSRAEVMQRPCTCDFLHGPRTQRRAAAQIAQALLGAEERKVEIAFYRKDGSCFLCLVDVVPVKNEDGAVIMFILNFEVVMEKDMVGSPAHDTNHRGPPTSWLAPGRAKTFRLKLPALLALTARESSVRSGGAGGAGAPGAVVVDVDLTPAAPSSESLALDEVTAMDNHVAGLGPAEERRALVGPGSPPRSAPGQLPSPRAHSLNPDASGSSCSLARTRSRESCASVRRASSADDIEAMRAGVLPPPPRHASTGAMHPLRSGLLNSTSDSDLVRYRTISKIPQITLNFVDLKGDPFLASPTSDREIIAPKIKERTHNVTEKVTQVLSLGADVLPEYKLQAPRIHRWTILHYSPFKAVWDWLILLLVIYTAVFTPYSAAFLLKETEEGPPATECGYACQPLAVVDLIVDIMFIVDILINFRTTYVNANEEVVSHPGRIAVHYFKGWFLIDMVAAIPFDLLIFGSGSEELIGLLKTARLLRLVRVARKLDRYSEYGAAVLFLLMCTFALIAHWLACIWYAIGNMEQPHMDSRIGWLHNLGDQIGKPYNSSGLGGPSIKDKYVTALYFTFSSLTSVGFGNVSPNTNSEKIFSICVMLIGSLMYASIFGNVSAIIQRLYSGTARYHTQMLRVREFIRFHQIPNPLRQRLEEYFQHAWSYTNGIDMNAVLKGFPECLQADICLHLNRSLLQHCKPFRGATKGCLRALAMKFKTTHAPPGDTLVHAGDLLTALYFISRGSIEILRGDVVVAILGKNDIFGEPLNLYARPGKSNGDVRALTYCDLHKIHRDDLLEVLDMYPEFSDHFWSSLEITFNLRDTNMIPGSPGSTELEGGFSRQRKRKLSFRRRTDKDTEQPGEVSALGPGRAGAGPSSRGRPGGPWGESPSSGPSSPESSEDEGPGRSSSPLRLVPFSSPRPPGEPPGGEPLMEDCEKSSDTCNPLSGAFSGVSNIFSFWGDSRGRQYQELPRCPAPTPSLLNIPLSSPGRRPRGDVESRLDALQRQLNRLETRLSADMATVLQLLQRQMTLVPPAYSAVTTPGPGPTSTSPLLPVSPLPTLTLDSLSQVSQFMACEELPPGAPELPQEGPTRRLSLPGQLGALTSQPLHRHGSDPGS

[9] = Genotoxicity in Salmonella typhimurium TA98 at 0.004 to 5 mg/ml measured after 90 mins in presence of rat S9 fraction by mini-Ames test; type: toxicity, subcellular; settings: salmonella enterica subsp. enterica serovar typhimurium
[10] = Cmax in CD1 mouse at 3 mg/kg, iv or 10 mg/kg, po administered via gavage by LC-MS/MS analysis; type: ADME, organism-based; settings: in vivo
[11] = AUC in CD1 mouse at 3 mg/kg, iv or 10 mg/kg, po administered via gavage by LC-MS/MS analysis; type: ADME, organism-based; settings: in vivo
[12] = Toxicity in CD1 mouse assessed as adverse effect at 600 mg/kg measured for 7 days; type: organism-based; settings: in vivo, 168 h

Row | SMILES | viability at 72 h, 20 µM [1] [%] | Fu [2] [%] | EC50 (Cytochrome P450 1A2) [µM] | inhibition at 1 µM (PTK6) [%] | Papp [3] [×10⁻⁶ cm/s] | Drug metabolism (Aldehyde oxidase) [µL/min/mg] | CLH [4] [µL/min/1e6 cells] | CLint scaled at 10 µM [5] [mL/min/kg] | viability at 72 h, 20 µM [6] [%] | viability at 72 h, 20 µM [7] [%] | inhibition at 10 µM (LCK) [%] | IC50 [8] [µM] | Activity [9] | Cmax [10] [ng/mL] | AUC [11] [ng·h/mL] | Activity [12]
1 | Nc1ncnc2c1c(Oc1cc(C(F)(F)F)ccn1)nn2C1CC1 | 97.8 | 15.6 | 0.46 | > 50 | 33 | < 3.2 | < 6.4 | < 8.6 | 104 | 93.3 | 55 | > 30 | Non-Toxic | 2067 | 2677 | Non-Toxic
2 | N#Cc1ccnc(Oc2nn([C@H]3C[C@H](F)C3)c3ncnc(N)c23)c1 | 79.4 | 29.3 | 20.8 | > 50 | 26.87 | < 3.2 | 10 | < 8.6 | 101 | 95.5 | 74 | > 30 | Non-Toxic | 1503 | 3140 | Non-Toxic
